A word on the IC70: it is the point of the concentration-response curve where the effect stands at 70%.

The nature of this assay: CD69 Whole Blood Assay (CD69 Hu Blood FACS). It counts as cell-based, human. The settings on record: Lymphocyte; human whole blood, anti-IgM activated B lymphocytes, FACS; IC70; Table 2 (unit inferred); read-out: CD69 Hu Blood FACS (IC70). The procedure, abridged:
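Compounds tested for blocking B-cell CD69 induction by flow cytometry in human whole blood, with activation via anti-human IgM goat F(ab′)2 crosslinking of surface IgM.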

SMILES strings stand for the structures.

In the case of `CNC(=O)c1c(-c2cc(Nc3ccc(N4CCN(C5COC5)C[C@@H]4C)cn3)c(=O)n(C)c2)ccnc1N1CCn2c(cc3c2CC(C)(C)C3)C1=O` [Example 211, 2-(7,7-dimethyl-4-oxo-1,2,6,8-tetrahydrocyclopenta[3,4]pyrrolo[3,5-b]pyrazin-3-yl)-N-methyl-4-[1-methyl-5-[[5-[(2S)-2-methyl-4-(oxetan-3-yl)piperazin-1-yl]-2-pyridyl]amino]-6-oxo-3-pyridyl]pyridine-3-carboxamide], the 70% effect concentration (IC70) is 2100 nM.

On to `CC(=O)N1CCn2nc(Nc3cc(-c4ccnc(N5CCn6c(cc7c6CC(C)(C)C7)C5=O)c4CO)cn(C)c3=O)cc2C1` [Example 212, 3-[4-[5-[(5-acetyl-6,7-dihydro-4H-pyrazolo[1,5-a]pyrazin-2-yl)amino]-1-methyl-6-oxo-3-pyridyl]-3-(hydroxymethyl)-2-pyridyl]-7,7-dimethyl-1,2,6,8-tetrahydrocyclopenta[3,4]pyrrolo[3,5-b]pyrazin-4-one], for which the IC70 turned out to be 15.2 nM.

For `Cc1nccc(Nc2cc(-c3ccnc(N4CCn5c6c(c(F)c5C4=O)CCCC6)c3CO)cn(C)c2=O)n1` [Example 213, 10-fluoro-2-[3-(hydroxymethyl)-4-[1-methyl-5-[(2-methylpyrimidin-4-yl)amino]-6-oxo-3-pyridyl]-2-pyridyl]-3,4,6,7,8,9-hexahydropyrazino[1,2-a]indol-1-one], the IC70 amounted to 620 nM.

With `Cn1cc(-c2ccnc(N3CCn4c(cc5c4CC(C)(C)C5)C3=O)c2CO)cc(Nc2nc3c(s2)COCC3)c1=O` [Example 214, 3-[4-[5-(6,7-dihydro-4H-pyrano[4,3-d]thiazol-2-ylamino)-1-methyl-6-oxo-3-pyridyl]-3-(hydroxymethyl)-2-pyridyl]-7,7-dimethyl-1,2,6,8-tetrahydrocyclopenta[3,4]pyrrolo[3,5-b]pyrazin-4-one], the IC70 came out at 124 nM.

`Cc1nccc(Nc2cc(-c3cncc(N4CCn5c(cc6c5CC(C)(C)C6)C4=O)c3CO)cn(C)c2=O)n1` [Example 215, 3-[4-(hydroxymethyl)-5-[1-methyl-5-[(2-methylpyrimidin-4-yl)amino]-6-oxo-3-pyridyl]-3-pyridyl]-7,7-dimethyl-1,2,6,8-tetrahydrocyclopenta[3,4]pyrrolo[3,5-b]pyrazin-4-one]: the IC70 came out at 457 nM.

For the compound `CN1CCc2nc(Nc3cc(-c4ccnc(-n5ncc6c7c(sc6c5=O)CCCC7)c4CO)cn(C)c3=O)sc2C1` [Example 216, 3-[3-(hydroxymethyl)-4-[1-methyl-5-[(5-methyl-6,7-dihydro-4H-thiazolo[5,4-c]pyridin-2-yl)amino]-6-oxo-3-pyridyl]-2-pyridyl]-6,7,8,9-tetrahydrobenzothiopheno[2,3-d]pyridazin-4-one], the 70% effect concentration (IC70) was 357 nM.

Take `Cn1cc(-c2ccnc(N3CCn4c(cc5c4CCCC5)C3=O)c2CO)cc(Nc2ccc3[nH]cnc3n2)c1=O` [Example 217, 2-[3-(hydroxymethyl)-4-[5-(1H-imidazo[4,5-b]pyridin-5-ylamino)-1-methyl-6-oxo-3-pyridyl]-2-pyridyl]-3,4,6,7,8,9-hexahydropyrazino[1,2-a]indol-1-one]: the IC70 was determined as 2900 nM.

With `Cc1cc(Nc2cc(-c3ccnc(N4CCn5c(cc6c5CC(C)(C)C6)C4=O)c3CO)cn(C)c2=O)nn1C` [Example 218, 3-[4-[5-[(1,5-dimethylpyrazol-3-yl)amino]-1-methyl-6-oxo-3-pyridyl]-3-(hydroxymethyl)-2-pyridyl]-7,7-dimethyl-1,2,6,8-tetrahydrocyclopenta[3,4]pyrrolo[3,5-b]pyrazin-4-one], the IC70 is 74.1 nM.

As for `Cn1cc(-c2ccnc(N3CCn4c(cc5c4CC(C)(C)C5)C3=O)c2CO)nc(Nc2cccc(N)c2)c1=O` [Example 219, 3-[4-[6-(3-aminoanilino)-4-methyl-5-oxo-pyrazin-2-yl]-3-(hydroxymethyl)-2-pyridyl]-7,7-dimethyl-1,2,6,8-tetrahydrocyclopenta[3,4]pyrrolo[3,5-b]pyrazin-4-one], the IC70 came out at 204 nM.

`C[C@H]1CN(C2COC2)CCN1c1ccc(Nc2cc(-c3ccnc(N4CCn5c(cc6c5CCCC6)C4)c3CO)cn(C)c2=O)nc1` [Example 220, 5-[2-(3,4,6,7,8,9-hexahydro-1H-pyrazino[1,2-a]indol-2-yl)-3-(hydroxymethyl)-4-pyridyl]-1-methyl-3-[[5-[(2S)-2-methyl-4-(oxetan-3-yl)piperazin-1-yl]-2-pyridyl]amino]pyridin-2-one]: the 70% effect concentration (IC70) was found to be 1600 nM.

Turning to `Cn1cc(-c2ccnc(N3CCn4c(cc5c4CC(C)(C)C5)C3=O)c2CO)cc(Nc2cccc(N)n2)c1=O` [Example 221, 3-[4-[5-[(6-amino-2-pyridyl)amino]-1-methyl-6-oxo-3-pyridyl]-3-(hydroxymethyl)-2-pyridyl]-7,7-dimethyl-1,2,6,8-tetrahydrocyclopenta[3,4]pyrrolo[3,5-b]pyrazin-4-one], the IC70 was 121 nM.

As to `Cc1nccc(Nc2cc(-c3ccnc(N4CCn5c(cc6c5CC(C)(C)C6)C4=O)c3CO)c[nH]c2=O)n1` [Example 222, 3-[3-(hydroxymethyl)-4-[5-[(2-methylpyrimidin-4-yl)amino]-6-oxo-1H-pyridin-3-yl]-2-pyridyl]-7,7-dimethyl-1,2,6,8-tetrahydrocyclopenta[3,4]pyrrolo[3,5-b]pyrazin-4-one], the IC70 was 178 nM.

Consider `CN1CCc2nc(Nc3cc(-c4ccnc(N5CCn6c7c(c(F)c6C5=O)CCCC7)c4CO)cn(C)c3=O)sc2C1` [Example 223, 10-fluoro-2-[3-(hydroxymethyl)-4-[1-methyl-5-[(5-methyl-6,7-dihydro-4H-thiazolo[5,4-c]pyridin-2-yl)amino]-6-oxo-3-pyridyl]-2-pyridyl]-3,4,6,7,8,9-hexahydropyrazino[1,2-a]indol-1-one], for which the concentration for an effect of 70% (IC70) turned out to be 430 nM.

For `C[C@H]1CN(C2COC2)CCN1c1ccc(Nc2cc(-c3ccnc(N4CCn5c(cc6c5CC(C)(C)C6)C4=O)c3CO)nn(C)c2=O)nc1` [Example 224, 3-[3-(hydroxymethyl)-4-[1-methyl-5-[[5-[(2S)-2-methyl-4-(oxetan-3-yl)piperazin-1-yl]-2-pyridyl]amino]-6-oxo-pyridazin-3-yl]-2-pyridyl]-7,7-dimethyl-1,2,6,8-tetrahydrocyclopenta[3,4]pyrrolo[3,5-b]pyrazin-4-one], the concentration for an effect of 70% (IC70) turned out to be 30.7 nM.

`Cc1nccc(Nc2cc(-c3ccnc(N4CCn5c(cc6c5CC(C)(C)C6)C4=O)c3CO)nn(C)c2=O)n1` [Example 225, 3-[3-(hydroxymethyl)-4-[1-methyl-5-[(2-methylpyrimidin-4-yl)amino]-6-oxo-pyridazin-3-yl]-2-pyridyl]-7,7-dimethyl-1,2,6,8-tetrahydrocyclopenta[3,4]pyrrolo[3,5-b]pyrazin-4-one]: the concentration for an effect of 70% (IC70) is 766 nM.

With `Cn1nc(-c2ccnc(N3CCn4c(cc5c4CC(C)(C)C5)C3=O)c2CO)cc(Nc2ccc(C(=O)N3CCOCC3)cn2)c1=O` [Example 226, 3-[3-(hydroxymethyl)-4-[1-methyl-5-[[5-(morpholine-4-carbonyl)-2-pyridyl]amino]-6-oxo-pyridazin-3-yl]-2-pyridyl]-7,7-dimethyl-1,2,6,8-tetrahydrocyclopenta[3,4]pyrrolo[3,5-b]pyrazin-4-one], the IC70 stood at 117 nM.

Turning to `Cn1nc(-c2ccnc(N3CCn4c(cc5c4CCCC5)C3=O)c2CO)cc(Nc2ccc(C(=O)N3CCOCC3)cn2)c1=O` [Example 227, 2-[3-(hydroxymethyl)-4-[1-methyl-5-[[5-(morpholine-4-carbonyl)-2-pyridyl]amino]-6-oxo-pyridazin-3-yl]-2-pyridyl]-3,4,6,7,8,9-hexahydropyrazino[1,2-a]indol-1-one], the concentration for an effect of 70% (IC70) amounted to 730 nM.

On to `C[C@H]1CN(C2COC2)CCN1c1cnc(Nc2cc(-c3ccnc(N4CCn5c(cc6c5CCCC6)C4=O)c3CO)cn(C)c2=O)cn1` [Example 228, 2-[3-(hydroxymethyl)-4-[1-methyl-5-[[5-[(2S)-2-methyl-4-(oxetan-3-yl)piperazin-1-yl]pyrazin-2-yl]amino]-6-oxo-3-pyridyl]-2-pyridyl]-3,4,6,7,8,9-hexahydropyrazino[1,2-a]indol-1-one], for which the IC70 amounted to 369 nM.

In the case of `CCc1nccc(Nc2cc(-c3ccnc(N4CCn5c(cc6c5CC(C)(C)C6)C4=O)c3CO)cn(C)c2=O)n1` [Example 229, 3-[4-[5-[(2-ethylpyrimidin-4-yl)amino]-1-methyl-6-oxo-3-pyridyl]-3-(hydroxymethyl)-2-pyridyl]-7,7-dimethyl-1,2,6,8-tetrahydrocyclopenta[3,4]pyrrolo[3,5-b]pyrazin-4-one], the IC70 is 583 nM.

In the case of `C[C@H]1CN(C2COC2)CCN1c1cnc(Nc2cc(-c3ccnc(-n4ncc5c6c(sc5c4=O)CCCC6)c3CO)cn(C)c2=O)cn1` [Example 230, 3-[3-(hydroxymethyl)-4-[1-methyl-5-[[5-[(2S)-2-methyl-4-(oxetan-3-yl)piperazin-1-yl]pyrazin-2-yl]amino]-6-oxo-3-pyridyl]-2-pyridyl]-6,7,8,9-tetrahydrobenzothiopheno[2,3-d]pyridazin-4-one], the IC70 came out at 179 nM.

For the compound `C[C@H]1CN(C2COC2)CCN1c1ccc(Nc2cc(-c3ccnc(N4CCn5c6c(c(F)c5C4=O)CCCC6)c3CO)nn(C)c2=O)nc1` [Example 231, 10-fluoro-2-[3-(hydroxymethyl)-4-[1-methyl-5-[[5-[(2S)-2-methyl-4-(oxetan-3-yl)piperazin-1-yl]-2-pyridyl]amino]-6-oxo-pyridazin-3-yl]-2-pyridyl]-3,4,6,7,8,9-hexahydropyrazino[1,2-a]indol-1-one], the IC70 was 62.4 nM.

On to `CN1CCC(c2ccc(Nc3cc(-c4ccnc(N5CCn6c(cc7c6CCCC7)C5=O)c4CO)cn(C)c3=O)nc2)CC1` [Example 232, 2-[3-(hydroxymethyl)-4-[1-methyl-5-[[5-(1-methyl-4-piperidyl)-2-pyridyl]amino]-6-oxo-3-pyridyl]-2-pyridyl]-3,4,6,7,8,9-hexahydropyrazino[1,2-a]indol-1-one], for which the IC70 is 51.8 nM.

As for `Cn1cc(-c2ccnc(N3CCn4c(cc5c4CC(C)(C)C5)C3=O)c2CO)cc(Nc2nc3c(s2)CNCC3)c1=O` [Example 233, 3-[3-(hydroxymethyl)-4-[1-methyl-6-oxo-5-(4,5,6,7-tetrahydrothiazolo[5,4-c]pyridin-2-ylamino)-3-pyridyl]-2-pyridyl]-7,7-dimethyl-1,2,6,8-tetrahydrocyclopenta[3,4]pyrrolo[3,5-b]pyrazin-4-one], the concentration for an effect of 70% (IC70) is 65.7 nM.

The record behind these values is patent US10045983B2, “Heteroaryl pyridone and aza-pyrodine compounds” (Genentech, Inc., priority 2011, dated 2018).
